PubChem BioAssay (NCI)
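Tested at 5 concentrations; 48 h exposure; 96-well plates; endpoints linearly interpolated, else capped at highest concentration. GI50 marks 50% less growth. TGI: concentration producing complete growth inhibition.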 Where a SMILES comes first, the peptide text is derived from it. The star is where a group is joined. Cbz = O=C(OCc1ccccc1)*; Boc = CC(C)(C)OC(=O)*; OBn = c1ccc(CO*)cc1

Experiments:
Assay in all cases: DTP human tumour cell line panel, 48 h
SK-OV-3 ovarian = system: SK-OV-3 ovarian
IGROV1 ovarian = system: IGROV1 ovarian
HL-60(TB) leukemia = system: HL-60(TB) leukemia
RPMI-8226 leukemia = system: RPMI-8226 leukemia
SNB-75 CNS = system: SNB-75 CNS
SF-268 CNS = system: SF-268 CNS
SF-295 CNS = system: SF-295 CNS
HS 578T breast = system: HS 578T breast
HCT-116 colon = system: HCT-116 colon
SW-620 colon = system: SW-620 colon

Structure (SMILES) | TGI (SK-OV-3 ovarian) [µM] | TGI (IGROV1 ovarian) [µM] | TGI (HL-60(TB) leukemia) [µM] | TGI (RPMI-8226 leukemia) [µM] | TGI (SNB-75 CNS) [µM] | TGI (SF-268 CNS) [µM] | TGI (SF-295 CNS) [µM] | TGI (HS 578T breast) [µM] | TGI (HCT-116 colon) [µM] | TGI (SW-620 colon) [µM] | GI50 (IGROV1 ovarian) [µM] | GI50 (HL-60(TB) leukemia) [µM] | GI50 (RPMI-8226 leukemia) [µM] | GI50 (SNB-75 CNS) [µM] | GI50 (SF-268 CNS) [µM] | GI50 (SF-295 CNS) [µM] | GI50 (HS 578T breast) [µM] | GI50 (HCT-116 colon) [µM] | GI50 (SW-620 colon) [µM] | GI50 (SK-OV-3 ovarian) [µM]
Cc1cc2c(cc1-c1cc3c(cc1C)C(C(C)C)=C(O)C(=O)/C3=C\Nc1cccc3c(N)cccc13)/C(=C/Nc1cccc3c(N)cccc13)C(=O)C(O)=C2C(C)C | > 100 | > 100 | > 100 | > 100 | > 100 | > 100 | > 100 | > 100 | > 100 | > 100 | – | – | – | – | – | – | – | – | – | –
C/C(O)=C/c1nc2sc(C)c(C)c2c(=O)s1 | > 100 | > 100 | > 100 | > 100 | > 100 | > 100 | > 100 | 74 | > 100 | > 100 | – | – | – | – | – | – | – | – | – | –
CN(Cc1cnc2nc(N)nc(N)c2n1)c1ccc(C(=O)NC2CCCCC2)cc1 | > 100 | 45.6 | > 100 | > 100 | 65.4 | > 100 | > 100 | 63.4 | > 100 | > 100 | – | – | – | – | – | – | – | – | – | –
CSc1ccc(C=C2N=C(c3ccccc3)N(c3cc(C(=O)c4ccccc4)ccc3N3C(=O)/C(=C/c4ccc(SC)cc4)N=C3c3ccccc3)C2=O)cc1 | > 100 | > 100 | > 100 | > 100 | 61.5 | > 100 | > 100 | > 100 | > 100 | > 100 | – | – | – | – | – | – | – | – | – | –
COC(=O)C(CCCCNC(=O)OCc1ccccc1)NC(=O)C(CCC(=O)OCc1ccccc1)NC(=O)OC(C)(C)C (centres undefined) (Boc-Glu(OBn)-Lys(Cbz)-OMe; configuration not given here) | > 100 | > 100 | > 100 | > 100 | > 100 | > 100 | > 100 | > 100 | > 100 | > 100 | – | – | – | – | – | – | – | – | – | –
Cc1ccc(NC(=O)c2cc(S(=O)(=O)N3CCNNC3=O)c(S)cc2Cl)cc1 | – | > 100 | > 100 | > 100 | > 100 | > 100 | > 100 | > 100 | > 100 | > 100 | – | – | – | – | – | – | – | – | – | –
COC(=O)[C@@H](COC(=O)/C=C/c1ccc(OC(C)=O)c(OC(C)=O)c1)NC(=O)/C=C/c1ccc(OC(C)=O)c(OC(C)=O)c1 | > 100 | > 100 | > 100 | > 100 | > 100 | > 100 | – | 94.6 | 39.5 | > 100 | – | – | – | – | – | – | – | – | – | –
COc1ccc(C(c2ccccc2)N2C(=O)CCC2C(=O)O)cc1OC (centres undefined) | > 100 | > 100 | > 100 | > 100 | > 100 | > 100 | > 100 | > 100 | > 100 | > 100 | – | – | – | – | – | – | – | – | – | –
CC1(C)O[C@@H]([C@@H](O)[C@H](O)C2SCCCS2)[C@@H](CO)O1 | > 100 | > 100 | > 100 | > 100 | > 100 | > 100 | > 100 | > 100 | > 100 | > 100 | – | – | – | – | – | – | – | – | – | –
O=C(Nc1ccc(-n2cc(-c3ccncc3)c(-c3ccc(O)c(Cl)c3)n2)cc1)c1ccc(Cl)c(Cl)c1 | – | > 32.5 | > 32.5 | 1.44 | > 32.5 | > 32.5 | 2.26 | > 32.5 | > 32.5 | > 32.5 | > 32.5 | 1.39 | 0.537 | 2.64 | > 32.5 | 0.833 | 0.791 | 1.23 | 2.08 | –
N=C(N)c1ccc(-c2ccc(-c3ccccc3)o2)cc1 | 10.2 | 4.5 | 4.42 | 7.29 | 3.43 | 4.28 | – | 7.04 | – | 3.32 | 2 | 1.93 | 2.75 | 1.45 | 1.96 | – | 2.58 | – | 1.72 | 2.89
OCC1OC(NC(=S)NCSCCC(F)(F)C(F)(F)C(F)(F)C(F)(F)C(F)(F)C(F)(F)F)C(O)C(O)C1O (centres undefined) | > 100 | > 100 | > 100 | > 100 | > 100 | > 100 | 60.5 | > 100 | > 100 | > 100 | – | – | – | – | – | – | – | – | – | –
Nc1nc(Cl)c(N)c(NCC2(CO)CC(O)C2)n1 (centres undefined) | > 100 | > 100 | > 100 | > 100 | > 100 | > 100 | > 100 | > 100 | > 100 | > 100 | – | – | – | – | – | – | – | – | – | –
O=C(CCl)Nc1ccc(-c2nc3ccccc3s2)cc1 | 17.5 | 3.3 | 5.73 | 5.34 | 11 | 8.44 | 15 | 20.1 | 5.81 | 5.07 | – | – | – | – | – | – | – | – | – | –
COC1(CCO)CC=CCC1(CCO)OC (centres undefined) | > 100 | > 100 | > 100 | > 100 | > 100 | > 100 | > 100 | > 100 | > 100 | > 100 | – | – | – | – | – | – | – | – | – | –
CCOC(=O)CC(=O)Nc1c(C(=O)OCC)sc2nc(SC)nc(Nc3ccc(OC)c(OC)c3)c12 | – | > 100 | > 100 | – | 21.9 | > 100 | 76.1 | > 100 | > 100 | > 100 | – | – | – | – | – | – | – | – | – | –
C[N+](C)(C)C(Cc1c[nH]c(=S)[nH]1)C(=O)O (centres undefined) | > 100 | > 100 | > 100 | > 100 | > 100 | > 100 | > 100 | > 100 | > 100 | > 100 | – | – | – | – | – | – | – | – | – | –
CCCN=C1S/C(=C/c2ccc(OC)c(OC)c2)C(=O)N1c1ccccc1 | 37.8 | > 100 | > 100 | > 100 | – | > 100 | 34.9 | > 100 | > 100 | > 100 | – | – | – | – | – | – | – | – | – | –
O=C1c2ccccc2-c2ccc(N(Cc3ccc(Br)cc3)Cc3ccc(Br)cc3)cc21 | > 100 | > 100 | 46.8 | > 100 | > 100 | > 100 | > 100 | > 100 | > 100 | > 100 | – | – | – | – | – | – | – | – | – | –
CC(C)=CCc1c(O)c(CC=C(C)C)c2oc3c(c(=O)c2c1O)C(C=C(C)C)Oc1cc(O)ccc1-3 (centres undefined) | 29 | 20.2 | 29.8 | 20.6 | 14.1 | 28 | 19.2 | 43.8 | 13.2 | 18.1 | – | – | – | – | – | – | – | – | – | –
